# Assay results published in patent publication US10072014B2 (Janssen Pharmaceutica NV, priority 2014, dated 2018).
# Key:
# [1] = target: T1, human mGlu2 receptor (Homo sapiens, UniProt Q14416); assay: [35S]GTPγS binding assay, negative allosteric modulation of mGluR2; format: biochemical
# T1 construct: expressed in transfected cells; host or cells: CHO cells
# Description: The compounds provided in the present invention are negative allosteric modulators of mGluR2. These compounds appear to inhibit glutamate responses by binding to an allosteric site other than the glutamate binding site. The response of mGluR2 to a concentration of glutamate is decreased when compounds of Formula (I) are present. Compounds of Formula (I) are expected to have their effect substantially at mGluR2 by virtue of their ability to reduce the function of the receptor. The effects of negative allosteric modulators tested at mGluR2 using the [^35S]GTPγS binding assay method described below and which is suitable for the identification of such compounds, and more particularly the compounds according to Formula (I), are shown in Table 7.
# 1) [^35S]GTPγS Binding Assay
# The [^35S]GTPγS binding assay is a functional membrane-based assay used to study G-protein coupled receptor (GPCR) function whereby incorporation of a non-hydrolysable form of GTP, [^35S]GTPγS (guanosine 5′-triphosphate, labelled with […] ^35S), is measured. The G-protein a subunit catalyzes the exchange of guanosine 5′-diphosphate (GDP) by guanosine triphosphate (GTP) and on activation of the GPCR by an agonist, [^35S]GTPγS, becomes incorporated and cannot be cleaved to continue the exchange cycle (Harper (1998) Current Protocols in Pharmacology 2.6.1-10, John Wiley & Sons, Inc.). […] Here we describe the use of the [^35S]GTPγS binding assay using membranes from cells transfected with the human mGlu2 receptor and adapted from Schaffhauser et al. (Molecular Pharmacology, 2003, […]) for the detection of the negative allosteric modulation (NAM) properties of the compounds of this invention.
# CHO-cells were cultured to pre-confluence and stimulated with 5 mM butyrate for 24 h. Cells were then collected by scraping in PBS and cell suspension was centrifuged (10 min at 4000 RPM in benchtop centrifuge). Supernatant was discarded and pellet gently resuspended in 50 mM Tris-HCl, pH 7.4 by mixing with an Ultra Turrax homogenizer. The suspension was centrifuged at 12,400 RPM (Sorvall F14S-6x250Y) for 10 minutes and the supernatant discarded. The pellet was homogenized in 5 mM Tris-HCl, pH 7.4 using an Ultra Turrax homogenizer and centrifuged again (13,000 RPM, 20 min, 4° C.). The final pellet was resuspended in 50 mM Tris-HCl, pH 7.4 and stored at −80° C. in appropriate aliquots before use. Protein concentration was determined by the Bradford method (Bio-Rad, USA) with bovine serum albumin as standard.
# [^35S]GTPγS Binding Assay
# Measurement of mGluR2 negative allosteric modulatory activity of test compounds was performed as follows. Test compounds and glutamate were diluted in assay buffer containing 10 mM HEPES acid, 10 mM HEPES salt, pH 7.4, 100 mM NaCl, 3 mM MgCl2 and 10 μM GDP. Human mGlu2 receptor-containing membranes were thawed on ice and diluted in assay buffer supplemented with 18 μg/ml saponin. Membranes were pre-incubated with compound together with a predefined (˜EC80) concentration of glutamate (60 μM) for 30 min at 30° C. After addition of [^35S]GTPγS (f.c. 0.1 nM), assay mixtures were shaken briefly and further incubated to allow [^35S]GTPγS incorporation on activation (30 minutes, 30° C.). Final assay mixtures contained 7 μg of membrane protein in 10 mM HEPES acid, 10 mM HEPES salt, pH 7.4, 100 mM NaCl, 3 mM MgCl2, 10 μM GDP and 10 μg/ml saponin. Total reaction volume was 200 μl. Reactions were terminated by rapid filtration through Unifilter-96 GF/B plates (Perkin Elmer, Massachusetts, USA) using a 96-well filtermate universal harvester. Filters were washed 6 times with ice-cold 10 mM NaH2PO4/10 mM Na2HPO4, pH 7.4. Filters were then air-dried, and 30 μl of liquid scintillation cocktail (Microscint-O) was added to each well. Membrane-bound radioactivity was counted in a Topcount.
# The concentration-response curves of representative compounds of the present invention were generated using the Lexis software interface (developed at J&J). […]
# [2] = test system: Wiga Wistar rats; assay: Reversal of LY-404039-induced decrease of palpebral opening in apomorphine-challenged rats; format: in vivo; conditions: Rattus norvegicus, PO, criterion: cumulative palpebral opening score >26, read-out: ED50 APO LY-404039
# Method: B) In Vivo Pharmacology 1) Reversal of LY-404039-induced Decrease of Palpebral Opening in Apomorphine-challenged Rats.
# Male Wiga Wistar rats (Crl:WI; Charles River Germany; 220±40 g) were housed under standard laboratory conditions (21±2° C.; 50-65% relative humidity; light-dark cycle set at 12 h; lights on at 6.00 h) and fasted overnight prior to the start of the experiments (tap water remained available ad libitum). During the test period, they were housed in individual cages. Palpebral opening was scored every 5 min over the first hour after injection of apomorphine (1.0 mg/kg, i.v.) in animals either pretreated or not pretreated with LY-404039 (2.5 mg/kg, s.c.) at 1 h prior to the apomorphine injection. The animals were also pretreated with test compound or solvent at a predefined interval before apomorphine challenge. The score system was: (5) exophthalmos, (4) wide open, (3) open for three-quarters, (2) half open, (1) open for one-quarter, (0) closed. The scores for palpebral opening were cumulated over the 60-min observation period. A cumulative palpebral opening score>26 was selected for drug-induced reversal of the LY-404039-induced decrease of palpebral opening (occurrence in 3.2% of control animals pretreated with LY-404039 (n=154) versus in 99.5% of control rats not pretreated with LY-404039 (n=6335)). […]
# [3] = Induction of mydriasis; conditions: Wiga, rat, in vivo, PO, rats
# Method: 3) Induction of Mydriasis
# The pupil diameter of Wiga rats was measured with a microscopic micrometer (1 unit= 1/24 mm). Criteria for drug-induced effects: pupil diameter>25 units for mydriasis (in controls: 1.9%) 1 h post-administration of the test compound (test 1) or 1, 2 or 3 h post-administration of the test compound (test 2, wherein the maximum pupil diameter over the full 3 h period is reported).
# T1 sequence (Q14416 19-872): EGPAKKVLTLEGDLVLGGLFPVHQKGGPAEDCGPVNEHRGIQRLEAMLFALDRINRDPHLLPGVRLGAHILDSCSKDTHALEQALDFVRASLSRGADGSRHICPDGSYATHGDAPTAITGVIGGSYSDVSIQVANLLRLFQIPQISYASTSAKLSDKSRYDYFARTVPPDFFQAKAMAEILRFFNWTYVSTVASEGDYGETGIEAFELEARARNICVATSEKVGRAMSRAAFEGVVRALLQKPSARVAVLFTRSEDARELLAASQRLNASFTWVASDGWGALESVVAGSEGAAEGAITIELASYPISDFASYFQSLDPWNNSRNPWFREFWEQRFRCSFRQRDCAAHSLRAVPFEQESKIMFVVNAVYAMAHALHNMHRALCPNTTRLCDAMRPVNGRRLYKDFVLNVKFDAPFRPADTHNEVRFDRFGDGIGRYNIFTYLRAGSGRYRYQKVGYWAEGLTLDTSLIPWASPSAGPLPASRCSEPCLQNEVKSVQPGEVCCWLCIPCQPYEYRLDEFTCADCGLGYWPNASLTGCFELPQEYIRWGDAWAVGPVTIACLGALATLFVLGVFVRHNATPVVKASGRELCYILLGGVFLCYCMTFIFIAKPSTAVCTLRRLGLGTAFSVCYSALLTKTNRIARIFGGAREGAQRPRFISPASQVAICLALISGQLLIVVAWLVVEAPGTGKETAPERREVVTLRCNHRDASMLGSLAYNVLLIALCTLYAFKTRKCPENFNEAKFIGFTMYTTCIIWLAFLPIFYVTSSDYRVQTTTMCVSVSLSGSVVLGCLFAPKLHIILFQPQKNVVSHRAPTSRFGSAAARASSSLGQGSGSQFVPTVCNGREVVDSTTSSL
structure (smiles),measurement,setting,value
Cc1ncc(-c2cnn3c2C(=O)N(c2ccc(C(F)(F)F)c(Cl)c2)C[C@@H]3C)[nH]1 [Compound 27],Emax,"[1]; maximal % inhibition relative to the control glutamate response (EC80 glutamate), read-out: GTPγS-hmGluR2 anGT Emax",106%
same,IC50,"[1]; membranes from CHO cells transfected with human mGlu2 receptor, glutamate 60 μM (~EC80), read-out: GTPγS-hmGluR2 anGT pIC50 (converted)",3.47 nM
same,ED50,[2],0.2 mg/kg
same,ED50,"[3]; maximum pupil diameter >25 units over 1, 2 or 3 h post-administration, read-out: ED50 MYD Test 2",> 40 mg/kg
same,ED50 at 1 h,"[3]; pupil diameter >25 units 1 h post-administration, read-out: ED50 MYD Test 1",> 10 mg/kg
